Experiments:
[1] = system: Bacillus subtilis ATCC 6633; experiment: In vitro antibacterial activity (minimum inhibitory concentration); format: cell-based; conditions: 37° C.; for Minimum inhibitory concentration: 20 hours, hydrochloride monohydrate
Description: (§1) The in vitro antimicrobial activity of a typical compound in accordance with the present invention (hereinafter referred to as the present compound) was evaluated in terms of minimum inhibitory concentrations for various Gram-positive and Gram-negative bacteria. The Gram-positive bacteria used as test microorganisms included Bacillus subtilis, Staphylococcus aureus, Staphylococcus epidermidis and Streptococcus pyogenes, and the Gram-negative bacteria used as test microorganisms included Escherichia coli, Enterobacter cloacae, Klebsiella pneumoniae, Proteus vulgaris, Pseudomonas aeruginosa, Serratia marcescens, Salmonella enteritidis and Morganella morganii. The minimum inhibitory concentrations (for the test microorganisms cultured at 37° C. for 20 hours) were determined according to the standard method prescribed by the Japanese Chemotherapeutic Society (Journal of the Japanese Chemotherapeutic Society, Vol. 29, No. 1, p. 76, 1981). As the present compound, there was used (+)-9-fluoro-5-methyl-8-(4-methyl-1-piperazinyl)-6,7-dihydro-1,7-dioxo1H,5H-benzo[ij]quinolizine-2-carboxylic acid hydrochloride monohydrate which had been prepared in Example 1 described later. For purposes of comparison, control compounds were evaluated in the same manner as described above. These control compounds comprised the optically active (-)-isomer of the aforesaid compound (which had been prepared in Reference Example described later) and the racemate thereof.

[2] = system: Enterobacter cloacae 963; experiment: as above; format: cell-based; conditions: 37° C.; for Minimum inhibitory concentration: 20 hours, hydrochloride monohydrate
Description: as §1

[3] = system: Escherichia coli NIHJ JC-2; experiment: as above; format: cell-based; conditions: 37° C.; for Minimum inhibitory concentration: 20 hours, hydrochloride monohydrate
Description: as §1

[4] = system: Klebsiella pneumoniae PCI 602; experiment: as above; format: cell-based; conditions: 37° C.; for Minimum inhibitory concentration: 20 hours, hydrochloride monohydrate
Description: as §1

[5] = system: Morganella morganii IFO 3848; experiment: as above; format: cell-based; conditions: 37° C.; for Minimum inhibitory concentration: 20 hours, hydrochloride monohydrate
Description: as §1

[6] = system: Proteus vulgaris ATCC 13315; experiment: as above; format: cell-based; conditions: 37° C.; for Minimum inhibitory concentration: 20 hours, hydrochloride monohydrate
Description: as §1

[7] = system: Pseudomonas aeruginosa PAO 1; experiment: as above; format: cell-based; conditions: 37° C.; for Minimum inhibitory concentration: 20 hours, hydrochloride monohydrate
Description: as §1

[8] = system: Salmonella enteritidis G 14; experiment: as above; format: cell-based; conditions: 37° C.; for Minimum inhibitory concentration: 20 hours, hydrochloride monohydrate
Description: as §1

[9] = system: Serratia marcescens IAM 1184; experiment: as above; format: cell-based; conditions: 37° C.; for Minimum inhibitory concentration: 20 hours, hydrochloride monohydrate
Description: as §1

[10] = system: Staphylococcus aureus FDA 209P JC-1; experiment: as above; format: cell-based; conditions: 37° C.; for Minimum inhibitory concentration: 20 hours, hydrochloride monohydrate
Description: as §1

[11] = system: Staphylococcus epidermidis IAM 1296; experiment: as above; format: cell-based; conditions: 37° C.; for Minimum inhibitory concentration: 20 hours, hydrochloride monohydrate
Description: as §1

[12] = system: Streptococcus pyogenes ATCC 19615; experiment: as above; format: cell-based; conditions: 37° C.; for Minimum inhibitory concentration: 20 hours, hydrochloride monohydrate
Description: as §1

[13] = system: various Gram-positive and Gram-negative bacteria; experiment: In vitro antibacterial activity over all test microorganisms (comparison of potency); format: cell-based; conditions: versus racemate
Description: as §1, with “These control compounds comprised the optically active (-)-isomer of the aforesaid compound (which had been prepared in Reference Example described later) and the racemate thereof.” left out

[14] = Solubility in water; format: physicochemical
Description: The solubilities of the present compound (which had been prepared in Example 1) and its racemate in water were determined.

Compound	Minimum inhibitory concentration [1]	Minimum inhibitory concentration [2]	Minimum inhibitory concentration [3]	Minimum inhibitory concentration [4]	Minimum inhibitory concentration [5]	Minimum inhibitory concentration [6]	Minimum inhibitory concentration [7]	Minimum inhibitory concentration [8]	Minimum inhibitory concentration [9]	Minimum inhibitory concentration [10]	Minimum inhibitory concentration [11]	Minimum inhibitory concentration [12]	solubility [14]	further results
CC1CC(=O)c2c(N3CCN(C)CC3)c(F)cc3c(=O)c(C(=O)O)cn1c23.Cl.O (single isomer, unassigned; (+)) [Present compound, (+)-9-fluoro-5-methyl-8-(4-methyl-1-piperazinyl)-6,7-dihydro-1,7-dioxo-1H,5H-benzo[ij]quinolizine-2-carboxylic acid hydrochloride monohydrate]	0.05 µg/mL	0.10 µg/mL	0.10 µg/mL	≤ 0.025 µg/mL	≤ 0.025 µg/mL	0.10 µg/mL	0.78 µg/mL	0.20 µg/mL	0.39 µg/mL	0.20 µg/mL	0.39 µg/mL	0.78 µg/mL	~180 mg/mL	antibacterial activity relative to the racemate (compound [I]) [13]: about twice as potent; solubility relative to the racemate ([14]; versus racemate): about 25 times
CC1CC(=O)c2c(N3CCN(C)CC3)c(F)cc3c(=O)c(C(=O)O)cn1c23.Cl.O (racemic) [Racemate, (±)-9-fluoro-5-methyl-8-(4-methyl-1-piperazinyl)-6,7-dihydro-1,7-dioxo-1H,5H-benzo[ij]quinolizine-2-carboxylic acid hydrochloride monohydrate]													~7 mg/mL	MIC ([1]; Bacillus subtilis, ATCC6633, 20 h): 0.1 µg/mL; MIC ([2]; Enterobacter cloacae, 963, 20 h): 0.2 µg/mL; MIC ([3]; Escherichia coli, NIHJJC2, 20 h): 0.2 µg/mL; MIC ([4]; Klebsiella pneumoniae, PCI602, 20 h): 0.1 µg/mL; MIC ([5]; Morganella morganii, IFO3848, 20 h): 0.1 µg/mL; MIC ([6]; Proteus vulgaris, ATCC13315, 20 h): 0.2 µg/mL; MIC ([7]; Pseudomonas aeruginosa, PAO1, 20 h): 1.56 µg/mL; MIC ([8]; Salmonella enterica, ENTERITIDIS, 20 h): 0.78 µg/mL; MIC ([9]; Serratia marcescens, IAM1184, 20 h): 1.56 µg/mL; MIC ([10]; Staphylococcus aureus, FDA209P, 20 h): 0.39 µg/mL; MIC ([11]; Staphylococcus epidermidis, IAM1296, 20 h): 1.56 µg/mL; MIC ([12]; Streptococcus pyogenes, ATCC19615, 20 h): 6.25 µg/mL
CC1CC(=O)c2c(N3CCN(C)CC3)c(F)cc3c(=O)c(C(=O)O)cn1c23.Cl.O (single isomer, unassigned; (-)) [(-)-isomer, (-)-9-fluoro-5-methyl-8-(4-methyl-1-piperazinyl)-6,7-dihydro-1,7-dioxo-1H,5H-benzo[ij]quinolizine-2-carboxylic acid hydrochloride monohydrate]	1.56 µg/mL	3.13 µg/mL	3.13 µg/mL	0.78 µg/mL	0.78 µg/mL	0.78 µg/mL	12.5 µg/mL	1.56 µg/mL	3.13 µg/mL	25 µg/mL	50 µg/mL	> 100 µg/mL		
